Numbers after ± are expanded uncertainties.
Experiment: molar heat capacity at constant volume
Conditions: Fluid (supercritical or subcritical phases), Vacuum adiabatic calorimetry

SMILES: CCC(C)O (stereo not given) [butan-2-ol]
- molar heat capacity at constant volume (307.37 K, Mass density=794.06 kg/m3): 167.81 ± 1.7 J/K/mol
- molar heat capacity at constant volume (307.62 K, Mass density=794.06 kg/m3): 154.62 ± 1.6 J/K/mol
- molar heat capacity at constant volume (307.87 K, Mass density=794.06 kg/m3): 157.58 ± 1.6 J/K/mol
- molar heat capacity at constant volume (308.12 K, Mass density=794.06 kg/m3): 160.7 ± 1.6 J/K/mol
- molar heat capacity at constant volume (308.37 K, Mass density=794.06 kg/m3): 163.88 ± 1.7 J/K/mol
- molar heat capacity at constant volume (308.62 K, Mass density=794.06 kg/m3): 165.44 ± 1.7 J/K/mol
- molar heat capacity at constant volume (308.87 K, Mass density=794.06 kg/m3): 167.74 ± 1.7 J/K/mol
- molar heat capacity at constant volume (309.12 K, Mass density=794.06 kg/m3): 167.81 ± 1.7 J/K/mol
- molar heat capacity at constant volume (309.37 K, Mass density=794.06 kg/m3): 168.4 ± 1.7 J/K/mol
- molar heat capacity at constant volume (309.62 K, Mass density=794.06 kg/m3): 167.22 ± 1.7 J/K/mol
- molar heat capacity at constant volume (311.11 K, Mass density=794.06 kg/m3): 182.78 ± 1.9 J/K/mol
- molar heat capacity at constant volume (321.67 K, Mass density=794.06 kg/m3): 204.87 ± 2.1 J/K/mol
- molar heat capacity at constant volume (323.61 K, Mass density=794.06 kg/m3): 208.36 ± 2.1 J/K/mol
- molar heat capacity at constant volume (323.85 K, Mass density=794.06 kg/m3): 208.87 ± 2.1 J/K/mol
- molar heat capacity at constant volume (324.09 K, Mass density=794.06 kg/m3): 208.06 ± 2.1 J/K/mol
- molar heat capacity at constant volume (324.33 K, Mass density=794.06 kg/m3): 208.8 ± 2.1 J/K/mol
- molar heat capacity at constant volume (324.57 K, Mass density=794.06 kg/m3): 208.8 ± 2.1 J/K/mol
- molar heat capacity at constant volume (324.81 K, Mass density=794.06 kg/m3): 207.99 ± 2.1 J/K/mol
- molar heat capacity at constant volume (325.06 K, Mass density=794.06 kg/m3): 209.76 ± 2.1 J/K/mol
- molar heat capacity at constant volume (325.3 K, Mass density=794.06 kg/m3): 210.43 ± 2.1 J/K/mol
- molar heat capacity at constant volume (325.54 K, Mass density=794.06 kg/m3): 211.25 ± 2.1 J/K/mol
- molar heat capacity at constant volume (325.78 K, Mass density=769.05 kg/m3): 223.77 ± 2.2 J/K/mol
- molar heat capacity at constant volume (325.78 K, Mass density=794.06 kg/m3): 210.73 ± 2.1 J/K/mol
- molar heat capacity at constant volume (326.02 K, Mass density=769.05 kg/m3): 224.88 ± 2.3 J/K/mol
- molar heat capacity at constant volume (326.02 K, Mass density=794.06 kg/m3): 211.32 ± 2.1 J/K/mol
- molar heat capacity at constant volume (326.26 K, Mass density=769.05 kg/m3): 226.22 ± 2.3 J/K/mol
- molar heat capacity at constant volume (326.26 K, Mass density=794.06 kg/m3): 213.03 ± 2.1 J/K/mol
- molar heat capacity at constant volume (326.5 K, Mass density=769.05 kg/m3): 226.29 ± 2.3 J/K/mol
- molar heat capacity at constant volume (326.74 K, Mass density=769.05 kg/m3): 227.11 ± 2.3 J/K/mol
- molar heat capacity at constant volume (326.98 K, Mass density=769.05 kg/m3): 226.59 ± 2.3 J/K/mol
- molar heat capacity at constant volume (327.22 K, Mass density=769.05 kg/m3): 226.59 ± 2.3 J/K/mol
- molar heat capacity at constant volume (327.22 K, Mass density=794.06 kg/m3): 213.54 ± 2.1 J/K/mol
- molar heat capacity at constant volume (327.46 K, Mass density=794.06 kg/m3): 212.51 ± 2.1 J/K/mol
- molar heat capacity at constant volume (327.7 K, Mass density=794.06 kg/m3): 212.8 ± 2.1 J/K/mol
- molar heat capacity at constant volume (327.94 K, Mass density=794.06 kg/m3): 212.73 ± 2.1 J/K/mol
- molar heat capacity at constant volume (328.18 K, Mass density=794.06 kg/m3): 212.43 ± 2.1 J/K/mol
- molar heat capacity at constant volume (333.2 K, Mass density=769.05 kg/m3): 231.33 ± 2.3 J/K/mol
- molar heat capacity at constant volume (333.44 K, Mass density=769.05 kg/m3): 232.45 ± 2.4 J/K/mol
- molar heat capacity at constant volume (333.67 K, Mass density=769.05 kg/m3): 231.78 ± 2.4 J/K/mol
- molar heat capacity at constant volume (333.91 K, Mass density=769.05 kg/m3): 232.59 ± 2.4 J/K/mol
- molar heat capacity at constant volume (334.15 K, Mass density=769.05 kg/m3): 232.82 ± 2.4 J/K/mol
- molar heat capacity at constant volume (334.39 K, Mass density=769.05 kg/m3): 233.04 ± 2.4 J/K/mol
- molar heat capacity at constant volume (334.62 K, Mass density=769.05 kg/m3): 232.82 ± 2.4 J/K/mol
- molar heat capacity at constant volume (334.86 K, Mass density=769.05 kg/m3): 233.63 ± 2.4 J/K/mol
- molar heat capacity at constant volume (335.1 K, Mass density=769.05 kg/m3): 234.15 ± 2.4 J/K/mol
- molar heat capacity at constant volume (335.33 K, Mass density=769.05 kg/m3): 233.41 ± 2.4 J/K/mol
- molar heat capacity at constant volume (335.57 K, Mass density=769.05 kg/m3): 225.63 ± 2.3 J/K/mol
- molar heat capacity at constant volume (335.81 K, Mass density=769.05 kg/m3): 219.55 ± 2.2 J/K/mol
- molar heat capacity at constant volume (336.04 K, Mass density=769.05 kg/m3): 213.77 ± 2.2 J/K/mol
- molar heat capacity at constant volume (336.28 K, Mass density=769.05 kg/m3): 209.39 ± 2.1 J/K/mol
- molar heat capacity at constant volume (336.52 K, Mass density=769.05 kg/m3): 207.32 ± 2.1 J/K/mol
- molar heat capacity at constant volume (336.75 K, Mass density=769.05 kg/m3): 207.02 ± 2.1 J/K/mol
- molar heat capacity at constant volume (337.46 K, Mass density=769.05 kg/m3): 204.72 ± 2.1 J/K/mol
- molar heat capacity at constant volume (337.93 K, Mass density=769.05 kg/m3): 204.8 ± 2.1 J/K/mol
- molar heat capacity at constant volume (338.64 K, Mass density=769.05 kg/m3): 204.35 ± 2.1 J/K/mol
- molar heat capacity at constant volume (339.34 K, Mass density=769.05 kg/m3): 203.76 ± 2.1 J/K/mol
- molar heat capacity at constant volume (349.82 K, Mass density=735.98 kg/m3): 241.34 ± 2.4 J/K/mol
- molar heat capacity at constant volume (350.05 K, Mass density=735.98 kg/m3): 242.01 ± 2.4 J/K/mol
- molar heat capacity at constant volume (350.28 K, Mass density=735.98 kg/m3): 243.56 ± 2.4 J/K/mol
- molar heat capacity at constant volume (350.51 K, Mass density=735.98 kg/m3): 243.19 ± 2.4 J/K/mol
- molar heat capacity at constant volume (350.74 K, Mass density=735.98 kg/m3): 243.49 ± 2.4 J/K/mol
- molar heat capacity at constant volume (352.35 K, Mass density=769.05 kg/m3): 218.36 ± 2.2 J/K/mol
- molar heat capacity at constant volume (352.58 K, Mass density=769.05 kg/m3): 219.99 ± 2.2 J/K/mol
- molar heat capacity at constant volume (353.27 K, Mass density=735.98 kg/m3): 242.23 ± 2.4 J/K/mol
- molar heat capacity at constant volume (353.49 K, Mass density=735.98 kg/m3): 245.19 ± 2.4 J/K/mol
- molar heat capacity at constant volume (353.72 K, Mass density=735.98 kg/m3): 244.68 ± 2.4 J/K/mol
- molar heat capacity at constant volume (353.95 K, Mass density=735.98 kg/m3): 243.34 ± 2.4 J/K/mol
- molar heat capacity at constant volume (354.18 K, Mass density=735.98 kg/m3): 245.12 ± 2.4 J/K/mol
- molar heat capacity at constant volume (354.41 K, Mass density=735.98 kg/m3): 243.86 ± 2.4 J/K/mol
- molar heat capacity at constant volume (354.64 K, Mass density=735.98 kg/m3): 245.56 ± 2.4 J/K/mol
- molar heat capacity at constant volume (364.16 K, Mass density=735.98 kg/m3): 251.2 ± 2.5 J/K/mol
- molar heat capacity at constant volume (364.39 K, Mass density=735.98 kg/m3): 251.35 ± 2.5 J/K/mol
- molar heat capacity at constant volume (364.61 K, Mass density=735.98 kg/m3): 252.01 ± 2.5 J/K/mol
- molar heat capacity at constant volume (364.84 K, Mass density=735.98 kg/m3): 252.16 ± 2.5 J/K/mol
- molar heat capacity at constant volume (365.06 K, Mass density=735.98 kg/m3): 251.79 ± 2.5 J/K/mol
- molar heat capacity at constant volume (365.29 K, Mass density=735.98 kg/m3): 251.79 ± 2.5 J/K/mol
- molar heat capacity at constant volume (365.51 K, Mass density=735.98 kg/m3): 252.01 ± 2.5 J/K/mol
- molar heat capacity at constant volume (366.41 K, Mass density=735.98 kg/m3): 253.2 ± 2.6 J/K/mol
- molar heat capacity at constant volume (366.63 K, Mass density=735.98 kg/m3): 248.46 ± 2.5 J/K/mol
- molar heat capacity at constant volume (366.86 K, Mass density=735.98 kg/m3): 245.27 ± 2.5 J/K/mol
- molar heat capacity at constant volume (367.08 K, Mass density=735.98 kg/m3): 226.44 ± 2.4 J/K/mol
- molar heat capacity at constant volume (367.31 K, Mass density=735.98 kg/m3): 219.84 ± 2.3 J/K/mol
- molar heat capacity at constant volume (367.53 K, Mass density=735.98 kg/m3): 215.18 ± 2.2 J/K/mol
- molar heat capacity at constant volume (367.75 K, Mass density=735.98 kg/m3): 213.69 ± 2.2 J/K/mol
- molar heat capacity at constant volume (367.98 K, Mass density=735.98 kg/m3): 212.88 ± 2.1 J/K/mol
- molar heat capacity at constant volume (368.2 K, Mass density=735.98 kg/m3): 213.25 ± 2.1 J/K/mol
- molar heat capacity at constant volume (369.54 K, Mass density=735.98 kg/m3): 213.69 ± 2.1 J/K/mol
- molar heat capacity at constant volume (369.76 K, Mass density=735.98 kg/m3): 214.43 ± 2.1 J/K/mol
- molar heat capacity at constant volume (369.99 K, Mass density=735.98 kg/m3): 214.66 ± 2.1 J/K/mol
- molar heat capacity at constant volume (371.32 K, Mass density=683.53 kg/m3): 261.13 ± 2.7 J/K/mol
- molar heat capacity at constant volume (371.54 K, Mass density=683.53 kg/m3): 261.43 ± 2.7 J/K/mol
- molar heat capacity at constant volume (371.77 K, Mass density=683.53 kg/m3): 261.72 ± 2.7 J/K/mol
- molar heat capacity at constant volume (371.99 K, Mass density=683.53 kg/m3): 263.06 ± 2.7 J/K/mol
- molar heat capacity at constant volume (372.21 K, Mass density=683.53 kg/m3): 263.95 ± 2.7 J/K/mol
- molar heat capacity at constant volume (372.43 K, Mass density=683.53 kg/m3): 260.76 ± 2.6 J/K/mol
- molar heat capacity at constant volume (372.65 K, Mass density=683.53 kg/m3): 259.87 ± 2.6 J/K/mol
- molar heat capacity at constant volume (373.1 K, Mass density=735.98 kg/m3): 216.29 ± 2.1 J/K/mol
- molar heat capacity at constant volume (373.32 K, Mass density=735.98 kg/m3): 217.25 ± 2.2 J/K/mol
- molar heat capacity at constant volume (373.54 K, Mass density=735.98 kg/m3): 217.99 ± 2.2 J/K/mol
- molar heat capacity at constant volume (373.76 K, Mass density=735.98 kg/m3): 219.7 ± 2.2 J/K/mol
- molar heat capacity at constant volume (373.98 K, Mass density=735.98 kg/m3): 219.03 ± 2.2 J/K/mol
- molar heat capacity at constant volume (374.21 K, Mass density=735.98 kg/m3): 216.66 ± 2.2 J/K/mol
- molar heat capacity at constant volume (374.43 K, Mass density=735.98 kg/m3): 217.4 ± 2.2 J/K/mol
- molar heat capacity at constant volume (374.65 K, Mass density=735.98 kg/m3): 217.47 ± 2.2 J/K/mol
- molar heat capacity at constant volume (374.87 K, Mass density=735.98 kg/m3): 218.51 ± 2.2 J/K/mol
